Results taken from ChEMBL document CHEMBL1201862, “PubChem BioAssay data set” (2004).
Active and inactive are the calls of the source.

Legend:
[1] = Luminescence-based counterscreen assay for KLF5 inhibitors: dose response cell-based high throughput screening assay to identify cytotoxic compounds using the IEC-6 intestinal epithelial cell line. [Related pubchem assays: 1700 (Primary screen.), 1834 (Confirmation screen.), 1858 (Summary AID.), 1905 (Counterscreen.)]; type: functional
Vasopressin V1a receptor = Vasopressin V1a receptor (Homo sapiens, UniProt P37288); experiment: Fluorescence-based cell-based high throughput dose response screening assay for agonists of the vasopressin 1 receptor (V1R).; type: functional
Oxytocin receptor = Oxytocin receptor (Homo sapiens, UniProt P30559); experiment: Counterscreen for vasopressin 1 receptor (V1R) agonists: Fluorescence-based cell-based high throughput dose response assay for agonists of the Oxytocin Receptor (OXTR). [Related pubchem assays: 2435 (Primary screen (OXTR agonists in singlicate)), 434964 (Confirmation screen (V1R agonists in triplicate)), 434969 (Counterscreen (OXTR agonists in …; type: functional
[2] = target: Induced myeloid leukemia cell differentiation protein Mcl-1 (Homo sapiens, UniProt Q07820); experiment: blockers of MCL1 binding to BIM peptide – biochemical, fluorescence polarization, BIM-BH3 peptide, 1536-well, dose response (AID 2217)
Bcl-2-like protein 1 = Bcl-2-like protein 1 (Homo sapiens, UniProt Q07817); experiment: blockers of BCLXL peptide binding – biochemical, fluorescence polarization, 1536-well, selectivity assay for MCL1 inhibitor project, dose response (AID 2218)
Estrogen receptor = target: T1, Estrogen receptor (Homo sapiens, UniProt P03372); experiment: blockers of SRC-3 recruitment to ERα – biochemical, ELISA, streptavidin-HRP readout, orthogonal assay, confirmation (AID 1079)
T1 sequence (P03372 whole entry): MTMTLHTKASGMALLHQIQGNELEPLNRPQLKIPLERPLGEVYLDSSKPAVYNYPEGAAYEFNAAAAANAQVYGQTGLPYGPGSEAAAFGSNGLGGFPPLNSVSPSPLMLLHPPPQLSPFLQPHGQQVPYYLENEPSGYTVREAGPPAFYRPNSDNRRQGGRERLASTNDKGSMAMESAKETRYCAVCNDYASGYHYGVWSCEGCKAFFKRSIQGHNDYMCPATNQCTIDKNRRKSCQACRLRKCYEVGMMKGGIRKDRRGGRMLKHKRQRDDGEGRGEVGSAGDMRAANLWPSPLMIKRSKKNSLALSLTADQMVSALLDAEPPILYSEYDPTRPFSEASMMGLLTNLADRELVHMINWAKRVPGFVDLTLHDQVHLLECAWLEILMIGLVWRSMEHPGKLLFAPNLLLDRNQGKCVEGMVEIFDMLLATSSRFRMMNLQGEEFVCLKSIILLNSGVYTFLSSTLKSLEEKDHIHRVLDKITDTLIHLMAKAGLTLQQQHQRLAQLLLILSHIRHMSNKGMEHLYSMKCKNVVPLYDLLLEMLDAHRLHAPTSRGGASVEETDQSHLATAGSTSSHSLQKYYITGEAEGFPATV

Estrogen receptor beta = Estrogen receptor beta (Homo sapiens, UniProt Q92731); experiment: blockers of SRC-3 recruitment to ERβ – biochemical, ELISA, streptavidin-HRP readout, orthogonal assay, confirmation (AID 1060)
[3] = M. tuberculosis H37Rv growth inhibitors, H37Rv strain (AID 1626); type: functional

Chain of Oxytocin receptor (P30559 whole entry): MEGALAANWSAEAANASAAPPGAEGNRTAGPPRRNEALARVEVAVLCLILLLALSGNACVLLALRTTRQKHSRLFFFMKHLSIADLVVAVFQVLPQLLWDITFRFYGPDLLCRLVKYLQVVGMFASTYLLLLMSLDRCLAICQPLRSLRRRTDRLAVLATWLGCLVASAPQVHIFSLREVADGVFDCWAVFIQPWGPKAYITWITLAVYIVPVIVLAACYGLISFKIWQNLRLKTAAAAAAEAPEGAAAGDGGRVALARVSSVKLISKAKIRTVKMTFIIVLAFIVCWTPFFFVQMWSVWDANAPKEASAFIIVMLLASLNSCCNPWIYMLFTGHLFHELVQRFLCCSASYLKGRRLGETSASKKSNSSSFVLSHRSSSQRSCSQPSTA
Chain of Bcl-2-like protein 1 (Q07817 whole entry): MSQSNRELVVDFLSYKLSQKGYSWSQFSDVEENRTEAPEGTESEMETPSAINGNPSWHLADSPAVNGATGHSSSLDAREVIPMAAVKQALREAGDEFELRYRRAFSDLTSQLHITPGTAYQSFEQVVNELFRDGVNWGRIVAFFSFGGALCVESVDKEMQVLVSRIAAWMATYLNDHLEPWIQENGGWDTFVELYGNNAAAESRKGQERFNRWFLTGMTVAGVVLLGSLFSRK
Chain of Vasopressin V1a receptor (P37288 whole entry): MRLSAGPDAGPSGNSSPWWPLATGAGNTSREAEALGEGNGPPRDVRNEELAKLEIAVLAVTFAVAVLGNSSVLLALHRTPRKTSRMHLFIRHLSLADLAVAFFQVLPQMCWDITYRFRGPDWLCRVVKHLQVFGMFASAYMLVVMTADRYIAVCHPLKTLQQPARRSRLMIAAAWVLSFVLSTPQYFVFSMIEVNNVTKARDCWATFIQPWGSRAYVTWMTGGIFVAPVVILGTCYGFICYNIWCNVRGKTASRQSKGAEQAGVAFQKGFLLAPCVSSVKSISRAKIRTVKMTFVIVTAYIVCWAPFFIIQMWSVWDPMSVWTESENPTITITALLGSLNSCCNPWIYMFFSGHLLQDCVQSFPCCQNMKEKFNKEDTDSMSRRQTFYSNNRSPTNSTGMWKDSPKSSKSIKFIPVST
Chain of Induced myeloid leukemia cell differentiation protein Mcl-1 (Q07820 whole entry): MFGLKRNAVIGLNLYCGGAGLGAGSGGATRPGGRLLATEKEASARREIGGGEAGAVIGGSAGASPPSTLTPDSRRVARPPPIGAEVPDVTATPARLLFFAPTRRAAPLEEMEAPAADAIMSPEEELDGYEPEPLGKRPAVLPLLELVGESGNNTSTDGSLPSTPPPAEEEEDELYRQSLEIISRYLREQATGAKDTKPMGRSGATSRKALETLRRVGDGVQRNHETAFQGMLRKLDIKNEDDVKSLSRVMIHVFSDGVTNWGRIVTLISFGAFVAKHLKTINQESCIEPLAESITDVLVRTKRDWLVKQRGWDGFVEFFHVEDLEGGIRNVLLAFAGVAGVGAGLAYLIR
Chain of Estrogen receptor beta (Q92731 whole entry): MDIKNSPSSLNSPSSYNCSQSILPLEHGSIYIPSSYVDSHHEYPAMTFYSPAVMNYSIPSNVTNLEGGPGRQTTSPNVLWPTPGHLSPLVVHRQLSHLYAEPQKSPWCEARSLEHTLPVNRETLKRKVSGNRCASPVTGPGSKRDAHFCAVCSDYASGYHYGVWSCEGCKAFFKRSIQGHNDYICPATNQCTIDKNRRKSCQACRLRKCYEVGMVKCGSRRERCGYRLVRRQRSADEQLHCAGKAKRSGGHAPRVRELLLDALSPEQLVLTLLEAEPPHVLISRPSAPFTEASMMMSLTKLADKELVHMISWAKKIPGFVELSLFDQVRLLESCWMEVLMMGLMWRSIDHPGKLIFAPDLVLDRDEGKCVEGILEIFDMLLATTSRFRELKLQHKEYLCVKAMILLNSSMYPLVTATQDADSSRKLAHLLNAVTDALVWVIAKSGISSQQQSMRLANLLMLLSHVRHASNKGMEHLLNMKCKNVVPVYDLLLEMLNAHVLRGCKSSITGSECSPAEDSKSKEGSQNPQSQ

In the case of `O=C(N/N=C/c1cccc(Oc2ccccc2)c1)c1ccccc1F`, the IC50 [1] is reported as 18.7 µM (not active).
With `CC(NC(=O)Nc1ccc(Cl)c(Cl)c1)C(c1ccccc1)N1CCOCC1` (stereo not drawn) the EC50 (Vasopressin V1a receptor) was 6.23 µM (active) and the EC50 (Oxytocin receptor) was > 29.9 µM (not active).
For `CCOC(=O)C[C@H]1c2ccc(C(F)(F)F)cc2S(=O)(=O)N1c1cccc(OC)c1`, the IC50 [2] was > 109 µM (not active) and the IC50 (Bcl-2-like protein 1) was > 109 µM (not active).
For `N#Cc1ccccc1N1CCN(C(=O)CCCCCn2c(=S)[nH]c3ccccc3c2=O)CC1`, the IC50 (Estrogen receptor) was 0.09 µM (not active) and the IC50 (Estrogen receptor beta) was 0.957 µM (not active).
In the case of `CCOC(=O)c1ccc(NC(=O)c2nnc(O)c3ccccc23)cc1`, the IC50 [3] is reported as > 100 µM (active).
